Experiments:
rats = experiment: Prepulse inhibition of acoustic startle, phencyclidine-induced sensorimotor gating deficit; type: in vivo, rat; details: for inhibition of startle response when preceded by pre-pulse (sensorimotor gating): rats pretreated 60 min, PCP 1.25 mg/kg SC, FIG. 7
Excerpt: Sensorimotor gating, a process compromised in schizophrenic patients, is often measured using prepulse inhibition whereby a mild auditory stimulus (prepulse, 2-15 db above background) precedes (100 ms) a startle-eliciting auditory stimulus (50 dB above background). Intact sensorimotor gating will result in suppression of the startle reflex when preceded by the prepulse. Since improvement in prepulse inhibition tracks improvement in symptoms that are largely insensitive to current treatments, this paradigm has become one of the most commonly used screening paradigms. FIG. 5 illustrates the capacity of PCP to disrupt prepulse inhibition, rendering the prepulse ineffective in suppressing the startle reflex. PCP is commonly used to disrupt prepulse inhibition because this abnormality, in addition to negative and cognitive symptoms, are insensitive to 1st generation antipsychotics thereby providing predictive validity.
FIG. 7 is a bar graph illustrating inhibition of a startle response in response to a load stimulus (pulse) when preceded by a pre-pulse stimulus (2-15 db above background). Prepulse inhibition is a commonly used paradigm to screen antipsychotic agents for use in treating schizophrenia. The pre-pulse stimulus presented at 15 dB above background reduced the startle response in saline controls (Sal; N=54) by >60% relative to the response elicited following exposure to the pulse only. […] This reflects sensorimotor gating deficits common to patients afflicted with schizophrenia.
In an exemplary experiment, rats are placed on a platform in a sound attenuating chamber (10.875″×14″×19.5″, Hamilton Kinder, CA) that rests on a motion sensing plate. During all sessions, background noise is held constant at 60 dB. A matching session is conducted to determine the magnitude of the average startle response for each rat. This session consists of a five minute habituation period followed by twenty trials.
Seventeen of these trials involve the presentation of a single auditory stimulus (pulse stimulus; 50 dB above the background noise), and in three of these trials, a pre-pulse stimulus (12 dB above background) is presented 100 ms before the pulse auditory stimulus.
Rats are then assigned to various treatment groups so that the magnitude of the startle response is equivalent across all groups. Two days later, a testing session is conducted to assess sensorimotor gating.
The testing session consists of a five minute habituation period, after which rats received 58 discrete trials: 26 trials during which the pulse stimulus (50 dB above background) was presented alone, eight trials each in which the pulse stimulus was preceded by a pre-pulse stimulus (5, 10, or 15 dB above background), and eight background trials with no pulse (no stimulus; background noise only).
The first six pulse alone trials are not included in the average startle stimulus, to achieve a relatively stable level of startle reactivity. The percent of pre-pulse inhibition is determined as 100−(average pre-pulse startle response/average startle stimulus alone)*100.

rodents = details: cited from earlier work
cocaine abusers = cocaine abusers receiving NAC; cited from earlier work
[1] = in vivo; cited from earlier work
human subjects = details: cited from earlier work
[2] = clinical trials; cited from earlier work
[3] = N=8/group, versus PCP alone and/or N-acetylcysteine 30 mg/kg, Fisher LSD p<0.05

c1ccc(C2(N3CCCCC3)CCCCC2)cc1 [phencyclidine]
reduction in the startle response elicited by the pulse when preceded by the pre-pulse (rats; rats, phencyclidine only 1.25 mg/kg SC, N=50, regardless of pre-pulse intensity): failed to exhibit a reduction in the response elicited by the pulse

CC(C)c1noc([C@@H](N)CSSC[C@H](N)c2nc(C(C)C)no2)n1 [Compound 25, (1R,1′R)-2,2′-Disulfanediylbis(1-(3-isopropyl-1,2,4-oxadiazol-5-yl)ethanamine)]
inhibition of startle response when preceded by pre-pulse (sensorimotor gating) (rats; [3]): significant difference

CC(=O)N[C@@H](CS)C(=O)O [N-acetyl cysteine, N-acetylcysteine]
phencyclidine-induced deficits in sensorimotor gating (rats; direct delivery into the brain (prefrontal cortex), FIG. 6): reverses phencyclidine-induced deficits in sensorimotor gating
inhibition of startle response when preceded by pre-pulse (sensorimotor gating) (rats; 30 mg/kg po): failed to exhibit sensorimotor gating
blocking compulsive drug-seeking (rodents): effective in blocking compulsive drug-seeking
cocaine use and craving (cocaine abusers): reduction in cocaine use and craving
first-pass metabolism [1]: extensive first-pass metabolism
passive transport across the blood-brain barrier [1]: limited passive transport
safety/tolerability profile (human subjects): favorable safety/tolerability profile
antipsychotic efficacy [2]: clinical trials establishing the antipsychotic efficacy

Cc1noc(C(CSSCC(NC(=O)OC(C)(C)C)c2nc(C)no2)NC(=O)OC(C)(C)C)n1 [Compound 23, tert-Butyl (1R,1′R)-2,2′-disulfanediylbis(1-(3-methyl-1,2,4-oxadiazol-5-yl)ethane-2,1-diyl)dicarbamate]
inhibition of startle response when preceded by pre-pulse (sensorimotor gating) (rats; [3]): significant difference

tert-Butyl (1R,1′R)-2,2′-disulfanediylbis(1-(3-isopropyl-1,2,4-oxadiazol-5-yl)ethane-2,1-diyl)dicarbamate [Compound 22]
inhibition of startle response when preceded by pre-pulse (sensorimotor gating) (rats; [3]): significant difference

— patent US9133141B2, “Cysteine and cystine bioisosteres to treat schizophrenia and reduce drug cravings” (Marquette University, priority 2008, dated 2015)
